# In patent publication EP4603105A1, “PHARMACEUTICAL COMPOSITION CONTAINING CYCLIC COMPOUND HAVING SELECTIVE KRAS INHIBITORY EFFECT AGAINST HRAS AND NRAS” (CHUGAI SEIYAKU KABUSHIKI KAISHA, priority 2022, dated 2024):
# Where a SMILES comes first, the peptide text is derived from it. Bridges are numbered along the chain shown (N, C = ends). [ ]: non-standard residue; d: D form. The star is where a group is joined. hPhe(3-Cl-4-CF3) = N[C@@H](CCc1ccc(C(F)(F)F)c(Cl)c1)C(=O)O; NPrPhe(4-CF3) = CCCN[C@@H](Cc1ccc(C(F)(F)F)cc1)C(=O)O; NMeGly(cPent) = CN[C@H](C(=O)O)C1CCCC1; Pro(4,4-F2) = O=C(O)[C@@H]1CC(F)(F)CN1; Hyp = O=C(O)[C@@H]1C[C@@H](O)CN1; NMeD = CN[C@@H](CC(=O)O)C(=O)O; NMeL = CN[C@@H](CC(C)C)C(=O)O; Morpholide = C1CN(*)CCO1; NMeA = CN[C@@H](C)C(=O)O; Ac5c = NC1(C(=O)O)CCCC1; Aze = O=C(O)[C@@H]1CCN1; Ac4c = NC1(C(=O)O)CCC1; NEtG = CCNCC(=O)O; Sar = CNCC(=O)O
# Tests used:
# [1] = target: GDP-bound NRAS wild-type protein (Homo sapiens, UniProt P01111); assay: Binding to NRAS by surface plasmon resonance (SPR), KD and KD ratio to KRAS
# Sequence of GDP-bound NRAS wild-type protein (P01111 whole entry): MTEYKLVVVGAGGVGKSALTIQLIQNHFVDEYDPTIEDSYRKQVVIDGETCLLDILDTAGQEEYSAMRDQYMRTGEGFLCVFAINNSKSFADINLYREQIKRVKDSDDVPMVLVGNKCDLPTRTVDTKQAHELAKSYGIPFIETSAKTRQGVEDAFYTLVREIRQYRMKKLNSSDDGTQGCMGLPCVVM
# Outline: (§1)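 Running buffer contained 10 µM GDP and 10 mM MgCl2 to keep RAS in the GDP state, with 4% DMSO at pH 7.4. Compounds were flowed at 100 µL/min in 75 s steps of rising concentration over captured biotin-Avi RAS at 30°C. Sensorgrams were fitted 1:1 for KD.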
# [2] = tested on: human lung cancer strain NCI-H441; assay type: cell-based
# Outline: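 Step one: dispense the test compound in serial DMSO dilutions. Step three: add the reagent and measure […].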
# [3] = target: HRAS wild-type protein (Homo sapiens, UniProt P01112); assay: Binding to HRAS by surface plasmon resonance (SPR), KD and KD ratio to KRAS
# Sequence of HRAS wild-type protein (P01112 whole entry): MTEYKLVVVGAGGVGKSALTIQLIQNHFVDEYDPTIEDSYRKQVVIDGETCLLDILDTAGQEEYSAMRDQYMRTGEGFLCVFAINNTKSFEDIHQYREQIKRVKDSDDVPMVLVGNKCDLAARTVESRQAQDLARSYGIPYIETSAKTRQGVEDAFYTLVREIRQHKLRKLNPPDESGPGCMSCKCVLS
# Outline: as §1
# [4] = ratio of KD for GDP-bound NRAS wild-type protein to KD for KRAS
# [5] = ratio of KD for HRAS wild-type protein to KD for KRAS
# [6] = ratio of the KD value with respect to GDP-bound NRAS wild-type protein to the KD value with respect to KRAS
# [7] = ratio of the KD value with respect to HRAS wild-type protein to the KD value with respect to KRAS
# [8] = ratio of KD value for GDP-bound NRAS wild-type protein to KD value for KRAS (SPR)
# [9] = ratio of KD value for HRAS wild-type protein to KD value for KRAS (SPR)
SMILES,"NRAS /KRAS [1, 4]",IC50 [2] [µM],"HRAS /KRAS [3, 5]",also measured
CCCN1C(=O)CN(C)C(=O)CN(CC)C(=O)[C@H]([C@@H](C)CC)NC(=O)[C@H](CC(C)C)N(C)C(=O)C[C@@H](C(=O)N(C)C)NC(=O)[C@H](C2CCCC2)N(C)C(=O)C2(CCC2)NC(=O)[C@@H]2C[C@@H](OCC)CN2C(=O)[C@H](CCc2ccc(C(F)(F)F)c(Cl)c2)NC(=O)CN(C)C(=O)[C@@H]1Cc1ccc(C(F)(F)F)cc1 [PP0372] ([NMeL]I[NEtG][Sar][NPrPhe(4-CF3)][Sar][hPhe(3-Cl-4-CF3)][Hyp](Et)[Ac4c][NMeGly(cPent)]D-NMe2; lactam N-11),B (a compound having 3 or more and less than 10 is denoted as B),0.0342,B (a compound having 3 or more and less than 10 is denoted as B),
"CCCN1C(=O)[C@@H]2CCN2C(=O)[C@H](C)N(C)C(=O)[C@H]([C@@H](C)CC)NC(=O)[C@H](CC(C)C)N(C)C(=O)C[C@@H](C(=O)N2CCOCC2)NC(=O)[C@H](C2CCCC2)N(C)C(=O)C2(CCC2)NC(=O)[C@@H]2CC(F)(F)CN2C(=O)[C@H](CCc2ccc(C(F)(F)F)c(Cl)c2)NC(=O)CN(C)C(=O)[C@@H]1Cc1ccc(C(F)(F)F)cc1 [PP0346] ([NMeL]I[NMeA][Aze][NPrPhe(4-CF3)][Sar][hPhe(3-Cl-4-CF3)][Pro(4,4-F2)][Ac4c][NMeGly(cPent)]D-Morpholide; lactam N-11)",C (A compound having a KD ratio of 0.1 or more and less than 3 is denoted as C),0.0695,B (a compound having 3 or more and less than 10 is denoted as B),
CC[C@H](C)[C@@H]1NC(=O)[C@H](CC(C)C)N(C)C(=O)C[C@@H](C(=O)N2CCOCC2)N(C)C(=O)[C@H](C2CCC2)N(C)C(=O)C2(CCCC2)NC(=O)[C@@H]2CCCN2C(=O)[C@H](CCc2cc(F)c(C(F)(F)F)c(F)c2)NC(=O)CN(C)C(=O)[C@H](Cc2ccc(C(F)(F)F)cc2)N2CCCC[C@@H](C2=O)N(C)C(=O)CN(C)C1=O [PP0566],,0.0184,,"NRAS /KRAS [1, 6]: B (a compound having 3 or more and less than 10 is denoted as B); HRAS /KRAS [3, 7]: B (a compound having 3 or more and less than 10 is denoted as B)"
CCO[C@@H]1C[C@H]2C(=O)NC3(CCC3)C(=O)N(C)[C@@H](C3CCCC3)C(=O)N(C)[C@H](C(=O)N(C)C)CC(=O)N(C)[C@@H](Cc3cccc(F)c3)C(=O)N[C@@H]([C@@H](C)CC)C(=O)N(C)CC(=O)N(C)[C@H]3CCCCCN(C3=O)[C@@H](Cc3ccc(C(F)(F)F)cc3)C(=O)N(C)CC(=O)N[C@@H](CCc3cc(F)c(C(F)(F)F)c(F)c3)C(=O)N2C1 [PP0935],B (a compound having 3 or more and less than 10 is denoted as B),0.0269,B (a compound having 3 or more and less than 10 is denoted as B),
CC[C@H](C)[C@@H]1NC(=O)[C@H](CC(C)C)N(C)C(=O)C[C@@H](C(=O)N2CCOCC2)N(C)C(=O)[C@H](C2CCCC2)N(C)C(=O)C2(CCC2)NC(=O)[C@@H]2[C@H]3C[C@H]3CN2C(=O)[C@H](CCc2cc(F)c(C(F)(F)F)c(F)c2)NC(=O)CN(C)C(=O)[C@H](Cc2ccc(C(F)(F)F)cc2)N2CCCC[C@@H](C2=O)N(C)C(=O)CN(C)C1=O [PP0810],B (a compound having 3 or more and less than 10 is denoted as B),0.0128,B (a compound having 3 or more and less than 10 is denoted as B),
"CCCN1C(=O)CN(C)C(=O)CN(CC)C(=O)[C@H]([C@@H](C)CC)NC(=O)[C@H](CC(C)C)N(C)C(=O)C[C@@H](C(=O)N2CCOCC2)NC(=O)[C@H](C2CCCC2)N(C)C(=O)C2(CCC2)NC(=O)[C@@H]2CC(F)(F)CN2C(=O)[C@H](CCc2ccc(C(F)(F)F)c(Cl)c2)NC(=O)CN(C)C(=O)[C@@H]1Cc1ccc(C(F)(F)F)cc1 [PP0334] ([NMeL]I[NEtG][Sar][NPrPhe(4-CF3)][Sar][hPhe(3-Cl-4-CF3)][Pro(4,4-F2)][Ac4c][NMeGly(cPent)]D-Morpholide; lactam N-11)",B (a compound having 3 or more and less than 10 is denoted as B),0.13,C (A compound having a KD ratio of 0.1 or more and less than 3 is denoted as C),
CCO[C@@H]1C[C@H]2C(=O)NC3(CCC3)C(=O)N(C)[C@@H](C3CCCC3)C(=O)N(C)[C@H](C(=O)N(C)CC)CC(=O)N(C)[C@@H](CC(F)F)C(=O)N[C@@H]([C@@H](C)CC)C(=O)N(C)CC(=O)N(C)[C@H]3C/C=C\CCN(C3=O)[C@@H](Cc3ccc(C(F)(F)F)cc3)C(=O)N(C)CC(=O)N[C@@H](CCc3cc(F)c(C(F)(F)F)c(F)c3)C(=O)N2C1 [PP1303],,0.0042,,NRAS /KRAS ([1]; ratio of KD with respect to GDP-bound NRAS wild-type protein to KD with respect to KRAS): AA (a compound having 20 or more is denoted as AA); HRAS /KRAS ([3]; ratio of KD with respect to HRAS wild-type protein to KD with respect to KRAS): A (a compound having 10 or more and less than 20 is denoted as A)
CCCN1C(=O)[C@@H]2CCN2C(=O)[C@H](C)N(C)C(=O)[C@H]([C@@H](C)CC)NC(=O)[C@H](CC(C)C)N(C)C(=O)C[C@@H](C(=O)N2CCOCC2)N(C)C(=O)[C@H](C2CCCC2)N(C)C(=O)C2(CCCC2)NC(=O)[C@@H]2C[C@@H](O)CN2C(=O)[C@H](CCc2ccc(C(F)(F)F)c(Cl)c2)NC(=O)CN(C)C(=O)[C@@H]1Cc1ccc(C(F)(F)F)cc1 [PP0239] ([NMeL]I[NMeA][Aze][NPrPhe(4-CF3)][Sar][hPhe(3-Cl-4-CF3)][Hyp][Ac5c][NMeGly(cPent)][NMeD]-Morpholide; lactam N-11),C (A compound having a KD ratio of 0.1 or more and less than 3 is denoted as C),0.0062,B (a compound having 3 or more and less than 10 is denoted as B),
CCCN1C(=O)CN(C)C(=O)CNC(=O)[C@H]([C@@H](C)CC)NC(=O)[C@H](CC(C)C)N(C)C(=O)C[C@@H](C(=O)N2CCOCC2)NC(=O)[C@H](C2CCCC2)N(C)C(=O)C2(CCC2)NC(=O)[C@@H]2C[C@@H](OCC)CN2C(=O)[C@H](CCc2ccc(C(F)(F)F)c(Cl)c2)NC(=O)CN(C)C(=O)[C@@H]1Cc1ccc(C(F)(F)F)cc1 [PP0330] ([NMeL]IG[Sar][NPrPhe(4-CF3)][Sar][hPhe(3-Cl-4-CF3)][Hyp](Et)[Ac4c][NMeGly(cPent)]D-Morpholide; lactam N-11),B (a compound having 3 or more and less than 10 is denoted as B),0.0982,C (A compound having a KD ratio of 0.1 or more and less than 3 is denoted as C),
CCO[C@@H]1C[C@H]2C(=O)NC3(CC(F)(F)C3)C(=O)N(C)[C@@H](C(CC)CC)C(=O)N(C)[C@H](CC)CC(=O)N(C)[C@@H](CC)C(=O)N[C@@H]([C@@H](C)CC)C(=O)N(C)CC(=O)N(C)[C@H]3C/C=C\CCN(C3=O)[C@@H](Cc3ccc(C(F)(F)F)cc3)C(=O)N(C)CC(=O)N[C@@H](CCc3cc(F)c(C(F)(F)F)c(F)c3)C(=O)N2C1 [PP1626],,0.108,,"NRAS /KRAS [1, 8]: A (a compound having 10 or more and less than 20 is denoted as A); HRAS /KRAS [3, 9]: A (a compound having 10 or more and less than 20 is denoted as A)"
CC[C@H](C)[C@@H]1NC(=O)[C@H](CC2CCC2)N(C)C(=O)C[C@@H](C(=O)N(C)C)N(C)C(=O)[C@H](C2CCCC2)N(C)C(=O)C2(CCC2)N(C)C(=O)[C@@H]2CCCN2C(=O)[C@H](CCc2cc(F)c(C(F)(F)F)c(F)c2)NC(=O)CN(C)C(=O)[C@H](Cc2ccc(C)cc2)N2CC/C=C\C[C@@H](C2=O)N(C)C(=O)CN(C)C1=O [PP1802],,0.0058,,"NRAS /KRAS [1, 8]: A (a compound having 10 or more and less than 20 is denoted as A); HRAS /KRAS [3, 9]: B (a compound having 3 or more and less than 10 is denoted as B)"
C=CC[C@H]1C(=O)N[C@@H]([C@@H](C)CC)C(=O)N(C)CC(=O)N(C)[C@H]2CCCCCN(C2=O)[C@@H](Cc2ccc(C(F)(F)F)cc2)C(=O)N(C)CC(=O)N[C@@H](CCc2cc(F)c(C(F)(F)F)c(F)c2)C(=O)N2C[C@H](OCC)C[C@H]2C(=O)NC2(CCC2)C(=O)N(C)[C@@H](C2CCCC2)C(=O)N(C)[C@H](C(=O)N(C)C)CC(=O)N1C [PP0665],,0.0156,,"NRAS /KRAS [1, 6]: B (a compound having 3 or more and less than 10 is denoted as B); HRAS /KRAS [3, 7]: B (a compound having 3 or more and less than 10 is denoted as B)"
CCO[C@@H]1C[C@H]2C(=O)NC3(CC(C)(C)C3)C(=O)N(C)[C@@H](C3CCCC3)C(=O)N(C)[C@H](C(=O)N(C)C)CC(=O)N(C)[C@@H](C(C)C)C(=O)N[C@@H]([C@@H](C)CC)C(=O)N(C)CC(=O)N(C)[C@H]3C/C=C\CCN(C3=O)[C@@H](Cc3ccc(C(F)(F)F)cc3)C(=O)N(C)CC(=O)N[C@@H](CCc3ccc(C(F)(F)F)c(OC)c3)C(=O)N2C1 [PP1979],,0.0125,,"NRAS /KRAS [1, 6]: AA (a compound having 20 or more is denoted as AA); HRAS /KRAS [3, 7]: A (a compound having 10 or more and less than 20 is denoted as A)"
CCC[C@H]1C(=O)N[C@@H](C(CC)CC)C(=O)N(C)CC(=O)N(C)[C@H]2C/C=C\CCN(C2=O)[C@@H](Cc2ccc(C)cc2)C(=O)N(C)CC(=O)N[C@@H](CCc2ccc(C(F)(F)F)c(Cl)c2)C(=O)N2C[C@H](OCC)C[C@H]2C(=O)NC2(CC(C)(C)C2)C(=O)N(C)[C@@H](C2CCCC2)C(=O)N(C)[C@H](C(=O)N(C)C)CC(=O)N1C [PP2209],,0.037,,"NRAS /KRAS [1, 6]: A (a compound having 10 or more and less than 20 is denoted as A); HRAS /KRAS [3, 7]: A (a compound having 10 or more and less than 20 is denoted as A)"
